For 18 molecules, IC50 results are on record in patent US20230286958A1, “PLASMA KALLIKREIN INHIBITORS” (Merck Sharp & Dohme LLC, priority 2020, published 2023).

pIC50: −log10 of the molar value.

The target of assay [1] is Human plasma kallikrein (Homo sapiens (Human), UniProt P03952). In words: Kallikrein Assay (fluorogenic substrate Acetyl-K-P-R-AFC). It is filed as biochemical. The note with it: Plasma Kallikrein (PKal). In short, it runs like this: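 Ki is derived from IC50 with the Cheng-Prusoff equation, and IC50 from the inflection point of a four-parameter logistic curve. The rate of AFC release is read with 0.5 nM purified enzyme and […] substrate at room temperature or 37 °C.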
Human plasma kallikrein, sequence (P03952 391-638): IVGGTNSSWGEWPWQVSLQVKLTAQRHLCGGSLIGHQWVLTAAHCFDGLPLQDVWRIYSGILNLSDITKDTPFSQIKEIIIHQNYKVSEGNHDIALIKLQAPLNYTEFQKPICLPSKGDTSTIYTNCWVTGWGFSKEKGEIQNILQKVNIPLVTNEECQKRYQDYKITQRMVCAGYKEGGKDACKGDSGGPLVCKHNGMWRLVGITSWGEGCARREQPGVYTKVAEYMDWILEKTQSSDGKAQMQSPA
Human plasma kallikrein, sequence (P03952 20-390 partner): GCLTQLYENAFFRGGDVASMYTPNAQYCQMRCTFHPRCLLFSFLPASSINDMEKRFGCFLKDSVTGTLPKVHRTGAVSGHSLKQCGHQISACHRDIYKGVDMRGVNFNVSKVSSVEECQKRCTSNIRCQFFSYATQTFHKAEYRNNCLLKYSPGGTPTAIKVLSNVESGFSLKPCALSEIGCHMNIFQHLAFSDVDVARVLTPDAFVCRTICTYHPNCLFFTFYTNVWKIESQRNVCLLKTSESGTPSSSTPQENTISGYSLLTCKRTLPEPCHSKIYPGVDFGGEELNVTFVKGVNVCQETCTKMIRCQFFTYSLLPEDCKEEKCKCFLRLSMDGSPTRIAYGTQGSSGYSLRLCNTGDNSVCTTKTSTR

Assay [2] has as its target human Factor XIa (Homo sapiens (Human), UniProt P03951). Nature of the assay: Factor XIa Assay (fluorogenic substrate GPR-AFC). The note with it: Factor XIa (FXIa). It is filed as biochemical.

human Factor XIa, sequence (P03951 388-625 limits assumed): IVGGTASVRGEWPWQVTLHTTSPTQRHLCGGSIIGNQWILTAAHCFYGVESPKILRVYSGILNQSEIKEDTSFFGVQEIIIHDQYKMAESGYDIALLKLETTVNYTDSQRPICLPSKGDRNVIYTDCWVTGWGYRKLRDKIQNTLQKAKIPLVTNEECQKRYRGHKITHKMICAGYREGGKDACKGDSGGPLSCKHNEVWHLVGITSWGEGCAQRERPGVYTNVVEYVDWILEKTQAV
human Factor XIa, sequence (P03951 19-387 partner limits assumed): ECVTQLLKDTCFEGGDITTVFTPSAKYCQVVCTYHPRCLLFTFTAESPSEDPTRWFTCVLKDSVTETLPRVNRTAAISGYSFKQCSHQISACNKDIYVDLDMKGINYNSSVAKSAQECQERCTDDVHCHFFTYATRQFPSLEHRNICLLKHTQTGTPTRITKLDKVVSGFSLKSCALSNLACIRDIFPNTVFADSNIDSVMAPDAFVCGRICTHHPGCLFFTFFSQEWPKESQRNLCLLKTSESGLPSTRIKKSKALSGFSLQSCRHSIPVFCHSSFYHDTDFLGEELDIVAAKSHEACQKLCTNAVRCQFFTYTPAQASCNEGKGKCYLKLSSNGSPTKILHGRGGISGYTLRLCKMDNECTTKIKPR

Consider `Cc1cc(C(C)n2cc(NC(=O)c3cc(-c4c(C(F)F)ccc(Cl)c4F)c[n+]([O-])c3)cn2)cnc1N1C[C@H]2C[C@H]2C1=O` (single isomer, unassigned) [Example 107, 5-(3-Chloro-6-(difluoromethyl)-2-fluorophenyl)-N-(1-((R or S)-1-(5-methyl-6-((1R,5S)-2-oxo-3-azabicyclo[3.1.0]hexan-3-yl)pyridin-3-yl)ethyl)-1H-pyrazol-4-yl)-1-(l1-oxidanyl)-114-pyridine-3-carboxamide], for which the pIC50 is 8.82 in assay [1] and 6.59 in assay [2].

In the case of `Cc1ccc(Cl)c(F)c1-c1cncc(C(=O)Nc2cnn(C(C)c3cnc(N4C[C@H]5C[C@H]5C4=O)nc3C)c2)n1` (single isomer, unassigned) [Example 108, 6-(3 -Chloro-2-fluoro-6-methylphenyl)-N-(1-((S or R)-1-(4-methyl-2-((1R,5S)-2-oxo-3-azabicyclo[3.1.0]hexan-3-yl)pyrimidin-5-yl)ethyl)-1H-pyrazol-4-yl)pyrazine-2-carboxamide], the pIC50 in assay [1] was 7.78; in assay [2] it was under 5.00.

On to `Cc1ccc(Cl)c(F)c1-c1cncc(C(=O)Nc2cnn(C(C)c3cnc(N4C[C@H]5C[C@H]5C4=O)nc3C)c2)n1` (single isomer, unassigned) [Example 109, 6-(3 -Chloro-2-fluoro-6-methylphenyl)-N-(1-((R or S)-1-(4-methyl-2-((1R,5S)-2-oxo-3-azabicyclo[3.1.0]hexan-3-yl)pyrimidin-5-yl)ethyl)-1H-pyrazol-4-yl)pyrazine-2-carboxamide], for which the results for the pIC50 in assay [1] and in assay [2] were 8.29 and 5.72, respectively.

Regarding `Cc1c(C(C)n2cc(NC(=O)c3cncc(-c4c(C(F)F)ccc(Cl)c4F)n3)cn2)nnc(N2C[C@H]3C[C@H]3C2=O)c1C` (single isomer, unassigned) [Example 110, 6-(3-Chloro-6-(difluoromethyl)-2-fluorophenyl)-N-(1-((S or R)-1-(4,5-dimethyl-6-((1R,5S)-2-oxo-3-azabicyclo[3.1.0]hexan-3-yl)pyridazin-3-yl)ethyl)-1H-pyrazol-4-yl)pyrazine-2-carboxamide], the pIC50 in assay [1] was 7.85; in assay [2] it was 5.46.

On to `Cc1c(C(C)n2cc(NC(=O)c3cncc(-c4c(C(F)F)ccc(Cl)c4F)n3)cn2)nnc(N2C[C@H]3C[C@H]3C2=O)c1C` (single isomer, unassigned) [Example 111, 6-(3-Chloro-6-(difluoromethyl)-2-fluorophenyl)-N-(1-((R or S)-1-(4,5-dimethyl-6-((1R,5S)-2-oxo-3-azabicyclo[3.1.0]hexan-3-yl)pyridazin-3-yl)ethyl)-1H-pyrazol-4-yl)pyrazine-2-carboxamide], for which the pIC50 was 9.40 in assay [1] and 6.97 in assay [2].

With `Cc1cc(C(C)n2cc(NC(=O)c3cncc(-c4c(OC(F)F)ccc(Cl)c4F)n3)cn2)nnc1N1C[C@H]2C[C@H]2C1=O` (single isomer, unassigned) [Example 114, 6-(3-Chloro-6-(difluoromethoxy)-2-fluorophenyl)-N-(1-((S or R)-1-(5-methyl-6-((1R,5S)-2-oxo-3-azabicyclo[3.1.0]hexan-3-yl)pyridazin-3-yl)ethyl)-1H-pyrazol-4-yl)pyrazine-2-carboxamide], the pIC50 was 9.15 in assay [1] and 6.25 in assay [2].

`Cc1cc(C(C)n2cc(NC(=O)c3cncc(-c4c(OC(F)F)ccc(Cl)c4F)n3)cn2)nnc1N1C[C@H]2C[C@H]2C1=O` (single isomer, unassigned) [Example 115, 6-(3-Chloro-6-(difluoromethoxy)-2-fluorophenyl)-N-(1-((R or S)-1-(5-methyl-6-((1R,5S)-2-oxo-3-azabicyclo[3.1.0]hexan-3-yl)pyridazin-3-yl)ethyl)-1H-pyrazol-4-yl)pyrazine-2-carboxamide]: the results for the pIC50 in assay [1] and in assay [2] were 8.60 and 6.33, respectively.

For the molecule `Cc1c(N2C[C@H]3C[C@H]3C2=O)cnc(C(C)n2cc(NC(=O)c3cncc(-c4c(C(F)F)ccc(Cl)c4F)n3)cn2)c1N` (single isomer, unassigned) [Example 117, N-(1-((S or R)-1-(3-Amino-4-methyl-5-((1R,SS)-2-oxo-3-azabicyclo[3.1.0]hexan-3-yl)pyridin-2-yl)ethyl)-1H-pyrazol-4-yl)-6-(3-chloro-6-(difluoromethyl)-2-fluorophenyl)pyrazine-2-carboxamide], the pIC50 in assay [1] was 8.72; in assay [2] it was under 5.00.

As for `Cc1ncc(-c2c(C(F)F)ccc(Cl)c2F)nc1C(=O)Nc1cnn(C(C)c2ncc(N3C[C@H]4C[C@H]4C3=O)c(C)c2N)c1` (single isomer, unassigned) [Example 118, N-(1-((R or S)-1-(3-Amino-4-methyl-5-((1R,5S)-2-oxo-3-azabicyclo[3.1.0]hexan-3-yl)pyridin-2-yl)ethyl)-1H-pyrazol-4-yl)-6-(3-chloro-6-(difluoromethyl)-2-fluorophenyl)-3-methylpyrazine-2-carboxamide], the pIC50 was 9.00 in assay [1] and 5.12 in assay [2].

On to `Cc1cc(C(C)n2cc(NC(=O)c3nc(-c4c(C(F)F)ccc(Cl)c4F)cnc3C)cn2)cnc1N1C[C@H]2C[C@H]2C1=O` (single isomer, unassigned) [Example 119, 6-(3-Chloro-6-(difluoromethyl)-2-fluorophenyl)-3-methyl-N-(1-((S or R)-1-(5-methyl-6-((1R,5S)-2-oxo-3-azabicyclo[3.1.0]hexan-3-yl)pyridin-3-yl)ethyl)-1H-pyrazol-4-yl)pyrazine-2-carboxamide], for which the negative-log IC50 (pIC50) is 9.22 in assay [1] and 6.11 in assay [2].

For the molecule `Cc1cc(C(C)n2cc(NC(=O)c3nc(-c4c(C(F)F)ccc(Cl)c4F)cnc3C)cn2)cnc1N1C[C@H]2C[C@H]2C1=O` (single isomer, unassigned) [Example 120, 6-(3-Chloro-6-(difluoromethyl)-2-fluorophenyl)-3-methyl-N-(1-((R or S)-1-(5-methyl-6-((1R,5S)-2-oxo-3-azabicyclo[3.1.0]hexan-3-yl)pyridin-3-yl)ethyl)-1H-pyrazol-4-yl)pyrazine-2-carboxamide], the negative logarithm of the IC50 (pIC50) in assay [1] was 9.30; in assay [2], 6.83.

In the case of `Cc1cc(C(C)n2cc(NC(=O)c3cc(-c4c(C(F)F)ccc(Cl)c4F)nnc3C)cn2)cnc1N1C[C@H]2C[C@H]2C1=O` (single isomer, unassigned) [Example 121, 6-(3-Chloro-6-(difluoromethyl)-2-fluorophenyl)-3-methyl-N-(1-((S or R)-1-(5-methyl-6-((1R,5S)-2-oxo-3-azabicyclo[3.1.0]hexan-3-yl)pyridin-3-yl)ethyl)-1H-pyrazol-4-yl)pyridazine-4-carboxamide], the figures for the negative-log IC50 (pIC50) in assay [1] and in assay [2] were 8.35 and under 5.00, respectively.

For the molecule `Cc1cc(C(C)n2cc(NC(=O)c3cc(-c4c(C(F)F)ccc(Cl)c4F)nnc3C)cn2)cnc1N1C[C@H]2C[C@H]2C1=O` (single isomer, unassigned) [Example 122, 6-(3-Chloro-6-(difluoromethyl)-2-fluorophenyl)-3-methyl-N-(1-((R or S)-1-(5-methyl-6-((1R,5S)-2-oxo-3-azabicyclo[3.1.0]hexan-3-yl)pyridin-3-yl)ethyl)-1H-pyrazol-4-yl)pyridazine-4-carboxamide], the pIC50 was 7.85 in assay [1] and 5.28 in assay [2].

For the molecule `Cc1ncc(-c2c(OC(F)F)ccc(Cl)c2F)nc1C(=O)Nc1cnn(C(C)c2cnc(N3C[C@H]4C[C@H]4C3=O)c(C)n2)c1` (single isomer, unassigned) [Example 123, 6-(3-Chloro-6-(difluoromethoxy)-2-fluorophenyl)-3-methyl-N-(1-((S or R)-1-(6-methyl-5-((1R,5S)-2-oxo-3-azabicyclo[3.1.0]hexan-3-yl)pyrazin-2-yl)ethyl)-1H-pyrazol-4-yl)pyrazine-2-carboxamide], the pIC50 was 9.00 in assay [1] and 6.44 in assay [2].

For `Cc1ncc(-c2c(OC(F)F)ccc(Cl)c2F)nc1C(=O)Nc1cnn(C(C)c2cnc(N3C[C@H]4C[C@H]4C3=O)c(C)n2)c1` (single isomer, unassigned) [Example 124, 6-(3-Chloro-6-(difluoromethoxy)-2-fluorophenyl)-3-methyl-N-(1-((R or S)-1-(6-methyl-5-((1R,5S)-2-oxo-3-azabicyclo[3.1.0]hexan-3-yl)pyrazin-2-yl)ethyl)-1H-pyrazol-4-yl)pyrazine-2-carboxamide], the negative-log IC50 (pIC50) in assay [1] was 9.22; in assay [2] it was 6.02.

Turning to `COCc1ncc(-c2c(C(F)F)ccc(Cl)c2F)nc1C(=O)Nc1cnn(C(C)c2cnc(N3C[C@H]4C[C@H]4C3=O)c(C)n2)c1` (single isomer, unassigned) [Example 125, 6-(3-Chloro-6-(difluoromethyl)-2-fluorophenyl)-3-(methoxymethyl)-N-(1-((S or R)-1-(6-methyl-5-((1R,5S)-2-oxo-3-azabicyclo[3.1.0]hexan-3-yl)pyrazin-2-yl)ethyl)-1H-pyrazol-4-yl)pyrazine-2-carboxamide], the negative-log IC50 (pIC50) in assay [1] is 8.92; in assay [2], 6.35.

Turning to `Cc1ncc(-c2c(C(F)F)ccc(Cl)c2F)nc1C(=O)Nc1cnn(C(C)c2cnc(N3C[C@H]4C[C@H]4C3=O)c(F)c2C)c1` (single isomer, unassigned) [Example 127, 6-(3-Chloro-6-(difluoromethyl)-2-fluorophenyl)-N-(1-((S or i)-1-(5-fluoro-4-methyl-6-((1R,5S)-2-oxo-3-azabicyclo[3.1.0]hexan-3-yl)pyridin-3-yl)ethyl)-1H-pyrazol-4-yl)-3-methylpyrazine-2-carboxamide], the pIC50 in assay [1] is 9.30; in assay [2], 6.22.

In the case of `Cc1ncc(-c2c(C(F)F)ccc(Cl)c2F)nc1C(=O)Nc1cnn(C(C)c2cnc(N3C[C@H]4C[C@H]4C3=O)c(F)c2C)c1` (single isomer, unassigned) [Example 128, 6-(3-Chloro-6-(difluoromethyl)-2-fluorophenyl)-N-(1-((R or S)-1-(5-fluoro-4-methyl-6-((1R,5S)-2-oxo-3-azabicyclo[3.1.0]hexan-3-yl)pyridin-3-yl)ethyl)-1H-pyrazol-4-yl)-3-methylpyrazine-2-carboxamide], the pIC50 in assay [1] was 8.15; in assay [2] it was 5.28.

For orientation: pIC50 means −log10 of the IC50, conventionally taken in molar units. The low end stands for a large IC50, the high end for a small IC50.
